Source: publication PMC7679387, “VZHE-039, a novel antisickling agent that prevents erythrocyte sickling under both hypoxic and anoxic conditions” (Scientific Reports, 2020)

Molecular target: T1, HbA (Homo sapiens, UniProt P69905)
T1 construct: fresh normal adult whole blood (Hct of 30%); from tissue; host or cells: normal adult whole blood (red blood cells)
Assay: In vitro time-dependent Hb oxygen equilibrium study using normal whole blood (tonometry)
Format: cell-based
Conditions: 2 mM, Hct 30%, 37 °C, 1-24 h
Excerpt: The antisickling activity of aromatic aldehydes is dependent on Schiff-base interaction between the aldehyde moiety and the Hb αVal1 amines (Schiff-base adduct) and the increase in the protein affinity for oxygen[30]–[40]. […] To overcome this pharmacologic limitation, Tucaresol and Voxelotor, two potent antisickling agents utilized a ortho-hydroxyl moiety (relative to the aldehyde group) on the benzaldehyde ring to form intramolecular hydrogen-bond interaction with the aldehyde group to form hemiacetal-like moiety, which led to significant reduction in oxidative metabolism of the aldehyde[28],[50]. […] VZHE-039, however, incorporates this ortho-hydroxyl moiety on the benzene ring, which is expected to increase its oxidative metabolic stability. This was tested by incubating 2 mM of VZHE-039 (with vanillin and TD-7 as controls) with fresh normal adult whole blood (Hct of 30%) at 37 °C as a surrogate measure of oxidative metabolism. At defined time points (1, 4, 8, 12 and 24 h), aliquot samples were drawn, and subsequently analyzed for their P50-shifts relative to the initial P50 value, using three-point tonometry. In parallel, an untreated control sample was also assessed to control for any time-dependent, but drug-independent changes in P50 values. […] These findings confirm the importance of the ortho-hydroxyl group in aromatic aldehydes in preventing or reducing enzymatic metabolism of aldehyde in RBCs.
Normal whole blood samples (hematocrit 30%) in the absence (control) or presence of 2 mM concentration VZHE-039 (solubilized in DMSO) were incubated at 37 °C for 24 h with shaking (at 140 rpm). At 1, 4, 8, 12 and 24 h time intervals, aliquots of this mixture were removed and then subjected to OEC analysis using tonometry as previously described. Vanillin and TD-7 were used as positive controls, while DMSO was tested as negative control. Briefly, the compound-treated blood samples were incubated in IL 237 tonometers (Instrumentation Laboratories, Inc. Lexington, MA) for approximately 10 min at 37 °C, and allowed to equilibrate at oxygen tensions 6, 20, and 40 mmHg. The samples were then aspirated into an ABL 700 Automated Blood Gas Analyzer (Radiometer) to determine the pH, partial pressure of CO2 (pCO2), partial pressure of oxygen (pO2), and Hb oxygen saturation values (SO2). The measured values of pO2 (mmHg) and SO2 at each pO2 value were then subjected to a non-linear regression analysis using the program Scientist (Micromath, Salt Lake City, UT) to estimate P50 as previously reported.

T1 sequence (P69905 2-142 limits assumed): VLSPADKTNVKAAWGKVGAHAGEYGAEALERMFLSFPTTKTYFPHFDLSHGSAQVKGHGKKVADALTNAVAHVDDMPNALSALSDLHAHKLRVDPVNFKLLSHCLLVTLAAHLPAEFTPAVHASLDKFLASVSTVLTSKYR
T1 sequence (P68871 2-147 partner limits assumed): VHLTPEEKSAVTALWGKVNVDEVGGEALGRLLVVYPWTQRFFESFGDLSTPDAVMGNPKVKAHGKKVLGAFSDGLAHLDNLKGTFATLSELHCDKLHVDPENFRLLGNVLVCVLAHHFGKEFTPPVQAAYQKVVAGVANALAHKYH

Structure (SMILES): O=Cc1c(O)cccc1OCc1cccc(CO)n1 [VZHE-039, 2-((6-(Hydroxymethyl)pyridin-2-yl)methoxy)-6-hydroxybenzaldehyde]
- Time course of P50-shift (in words): sustained P50-shift throughout the entire 24-h experimental period
